Data reported in patent US7749996B2, “Heterotricyclic metalloprotease inhibitors” (Alantos Pharmaceutical Holdings, Inc., priority 2006, dated 2010).

Key:
[1] = target: T1, catalytic domain of MMP-13 enzyme (Homo sapiens, UniProt P45452); experiment: Assay for determining MMP-13 inhibition (fluorescent substrate); type: biochemical; conditions: Table 1, activity group
T1 construct: stock solution of catalytic domain of MMP-13 enzyme (produced by Alantos or commercially available from Invitek (Berlin), Cat.# 30100812); purchased Invitek (Berlin) 30100812
Method: The typical assay for MMP-13 activity is carried out in assay buffer comprised of 50 mM Tris, pH 7.5, 150 mM NaCl, 5 mM CaCl2 and 0.05% Brij-35. Different concentrations of tested compounds are prepared in assay buffer in 50 μL aliquots. […] The mixture of enzyme and compound in assay buffer is thoroughly mixed and incubated for 10 min at room temperature. […] The time-dependent increase in fluorescence is measured at the 320 nm excitation and 390 nm emission by automatic plate multireader. The IC50 values are calculated from the initial reaction rates.

activated MMP-8 enzyme = target: T2, activated MMP-8 enzyme (Homo sapiens, UniProt P22894); experiment: Assay for determining MMP-8 inhibition (fluorescent substrate); type: biochemical; conditions: Table 2, activity group
T2 construct: purchased Calbiochem 444229
Method: The typical assay for MMP-8 activity is carried out in assay buffer comprised of 50 mM Tris, pH 7.5, 150 mM NaCl, 5 mM CaCl2 and 0.05% Brij-35. Different concentrations of tested compounds are prepared in assay buffer in 50 μL aliquots. […] The mixture of enzyme and compound in assay buffer is thoroughly mixed and incubated for 10 min at 37° C. […] The time-dependent increase in fluorescence is measured at the 320 nm excitation and 390 nm emission by an automatic plate multireader at 37° C. The IC50 values are calculated from the initial reaction rates.

T2 sequence (P22894 101-467): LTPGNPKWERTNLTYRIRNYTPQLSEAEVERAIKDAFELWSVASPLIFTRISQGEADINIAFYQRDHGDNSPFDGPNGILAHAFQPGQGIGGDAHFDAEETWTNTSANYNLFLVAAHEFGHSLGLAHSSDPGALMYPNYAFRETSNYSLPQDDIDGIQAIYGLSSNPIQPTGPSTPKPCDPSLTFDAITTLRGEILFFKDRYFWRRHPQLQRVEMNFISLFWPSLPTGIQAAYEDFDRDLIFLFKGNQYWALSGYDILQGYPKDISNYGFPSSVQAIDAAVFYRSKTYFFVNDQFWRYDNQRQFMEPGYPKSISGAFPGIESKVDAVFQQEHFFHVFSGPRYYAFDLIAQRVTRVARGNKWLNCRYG

Row | Compound | IC50 [1] [nM] | IC50 (activated MMP-8 enzyme) [nM]
1 | NC(=O)[C@@H]1CCC[C@@H]1NC(=O)c1nc2sc3c(c2c(=O)[nH]1)CCC3 [2/323] | 100 to 20000 | 
2 | CC(C)(C)OC(=O)CNC(=O)C1CCc2sc3nc(C(=O)NCc4ccc5c(c4)NC(=O)CO5)[nH]c(=O)c3c21 (stereo not shown) [2/224] | < 100 | < 250
3 | CC(C)(C)c1ccc2c(c1)sc1nc(C(=O)NCc3ccc4c(c3)NC(=O)CO4)[nH]c(=O)c12 [2/143] | 100 to 20000 | 
4 | O=C(NCc1ccc(F)c(OC(F)(F)F)c1)c1nc2sc3c(c2c(=O)[nH]1)CCC3 [2/332] | < 100 | 
5 | COC(=O)C1Cc2sc3nc(C(=O)NCc4ccc5c(c4)CN(c4c(N)c(=O)c4=O)CC5)[nH]c(=O)c3c2C1 (stereo not shown) [2/230] |  | < 250
6 | NC(=O)C1CCc2sc3nc(C(=O)NCc4ccc5c(c4)NC(=O)CO5)[nH]c(=O)c3c21 (stereo not shown) [Example 2/166] | < 100 | < 250
7 | COc1ccc(CNC(=O)c2nc3sc4c(c3c(=O)[nH]2)CCC4)cc1 [2/384] | 100 to 20000 | 250 to 20000
8 | CCOC(=O)C1CCc2sc3nc(C(=O)NCc4ccc5c(c4)CN(c4c(N)c(=O)c4=O)CC5)[nH]c(=O)c3c21 (stereo not shown) [2/114] | < 100 | < 250
9 | CCOC(=O)C1CCc2sc3nc(C(=O)NCc4ccc5c(c4)NC(=O)CO5)[nH]c(=O)c3c21 (stereo not shown) [2/113] | < 100 | < 250
10 | O=C(NCc1ccsc1)c1nc2sc3c(c2c(=O)[nH]1)CCC3 [2/344] | 100 to 20000 | 
11 | O=C(c1nc2sc3c(c2c(=O)[nH]1)CCC3)N1CC[C@H]2CCCC[C@@H]2C1 [2/305] | 100 to 20000 | 
12 | O=C1COc2ccc(CNC(=O)c3nc4sc5c(c4c(=O)[nH]3)CCCC5)cc2N1 [2/33] | < 100 | < 250
13 | O=C(NC(c1ccccc1)c1ccccn1)c1nc2sc3c(c2c(=O)[nH]1)CCC3 (stereo not shown) [2/328] | 100 to 20000 | 
14 | Nc1c(N2CCc3ccc(CNC(=O)c4nc5sc6c(c5c(=O)[nH]4)CCCCCC6)cc3C2)c(=O)c1=O [2/126] | < 100 | < 250
15 | O=C1COc2ccc(CNC(=O)c3nc4sc5c(c4c(=O)[nH]3)CCC(c3ccccc3)C5)cc2N1 (stereo not shown) [2/145] | < 100 | 
16 | O=C1COc2ccc(CNC(=O)c3nc4sc5c(c4c(=O)[nH]3)CN(Cc3ccccc3)C5)cc2N1 [Example 43/1] |  | < 250
17 | Nc1c(N2CCc3ccc(CNC(=O)c4nc5sc6c(c5c(=O)[nH]4)CCC(c4ccccc4)C6)cc3C2)c(=O)c1=O (stereo not shown) [2/146] | 100 to 20000 | 
18 | O=C(NCc1cccc(N2CCSCC2)c1)c1nc2sc3c(c2c(=O)[nH]1)CCC3 [2/528] | < 100 | 250 to 20000
19 | Nc1c(NCc2cccc(CNC(=O)c3nc4sc5c(c4c(=O)[nH]3)CCC5)c2)c(=O)c1=O [2/413] | < 100 | < 250
20 | CC1SCc2sc3nc(C(=O)NCc4ccc5c(c4)NC(=O)CO5)[nH]c(=O)c3c21 (stereo not shown) [2/131] | < 100 | < 250
21 | COc1cccc(CNC(=O)c2nc3sc4c(c3c(=O)[nH]2)CCC4)c1 [2/387] |  | 250 to 20000

Row | Compound | IC50 [1] [nM] | IC50 (activated MMP-8 enzyme) [nM]
22 | C#CCNC(=O)CC1CCCc2sc3nc(C(=O)NCc4ccc5c(c4)NC(=O)CO5)[nH]c(=O)c3c21 (stereo not shown) [2/251] | < 100 | < 250
23 | Nc1c(N2CCc3ccc(CNC(=O)c4nc5sc6c(c5c(=O)[nH]4)C4CCN6CC4)cc3C2)c(=O)c1=O [2/90] | < 100 | 
24 | Nc1c(N2CCc3ccc(CNC(=O)c4nc5sc6c(c5c(=O)[nH]4)CCCS6)cc3C2)c(=O)c1=O [2/120] | < 100 | 
25 | COC(=O)C1SCCN1C(=O)c1nc2sc3c(c2c(=O)[nH]1)CCC3 (stereo not shown) [2/307] | 100 to 20000 | 
26 | O=C1COc2ccc(CNC(=O)c3nc4sc5c(c4c(=O)[nH]3)CCNCC5)cc2N1 [15/3] |  | 250 to 20000
27 | O=C(NCc1csc2ccccc12)c1nc2sc3c(c2c(=O)[nH]1)CCC3 [2/333] | 100 to 20000 | 
28 | O=C(NCc1ccc(F)c(Cl)c1)c1nc2sc3c(c2c(=O)[nH]1)CCC3 [2/433] | 100 to 20000 | 250 to 20000
29 | COC(=O)c1cccc(CNC(=O)c2nc3sc4c(c3c(=O)[nH]2)CCC4)c1 [2/316] | < 100 | 250 to 20000
30 | O=C1COc2ccc(CNC(=O)c3nc4cc5c(cc4c(=O)[nH]3)CCC5)cc2N1 [2/246] | < 100 | 
31 | O=C(NCc1ccc(F)cc1)c1nc2sc3c(c2c(=O)[nH]1)CCC3 [2/290] | < 100 | 250 to 20000
32 | O=C1COc2ccc(CNC(=O)c3nc4sc5c(c4c(=O)[nH]3)CCCCCC5)cc2N1 [2/125] | < 100 | < 250
33 | O=C(NCc1ccc2c(c1)OCO2)c1nc2sc3c(c2c(=O)[nH]1)CCC3 [2/382] |  | 250 to 20000
34 | O=C(NCc1cccnc1)c1nc2sc3c(c2c(=O)[nH]1)CCC3 [2/309] | < 100 | 
35 | Cc1cc(CNC(=O)c2nc3sc4c(c3c(=O)[nH]2)CCC4)ccc1F [2/313] | < 100 | < 250
36 | O=C(NCc1cccc(N2CCOCC2)c1)c1nc2sc3c(c2c(=O)[nH]1)CCC3 [2/359] | < 100 | 
37 | O=C1COc2ccc(CNC(=O)c3nc4sc5c(c4c(=O)[nH]3)CCCSC5)cc2N1 [Example 2/218] |  | < 250
38 | NC(=O)[C@@H](NC(=O)c1nc2sc3c(c2c(=O)[nH]1)CCC3)c1ccccc1 [2/327] | 100 to 20000 | 
39 | O=C1COc2ccc(CNC(=O)c3nc4sc5c(c4c(=O)[nH]3)CCCS5)cc2N1 [2/119] | < 100 | 
40 | O=C(NCc1cccc(N2CCOCC2)c1)c1nc2sc3c(c2c(=O)[nH]1)CCC3 [2/529] |  | 250 to 20000
41 | CC(C)(C)c1ccc2c(c1)sc1nc(C(=O)NCc3ccc4c(c3)CN(c3c(N)c(=O)c3=O)CC4)[nH]c(=O)c12 [2/144] | 100 to 20000 | 
42 | CC(=O)N1Cc2sc3nc(C(=O)NCc4ccc5c(c4)NC(=O)CO5)[nH]c(=O)c3c2C1 [Example 42] |  | 250 to 20000

Row | Compound | IC50 [1] [nM] | IC50 (activated MMP-8 enzyme) [nM]
43 | NS(=O)(=O)c1ccc(CNC(=O)c2nc3sc4c(c3c(=O)[nH]2)CCC4)s1 [2/367] | < 100 | 
44 | O=C(NCc1ccc2occc2c1)c1nc2sc3c(c2c(=O)[nH]1)CCC3 [2/354] | < 100 | 
45 | O=C1COc2cc(CNC(=O)c3nc4sc5c(c4c(=O)[nH]3)CCCC5)ccc2N1 [2/34] | 100 to 20000 | 
46 | O=C1COc2ccc(CNC(=O)c3nc4sc5c(c4c(=O)[nH]3)C3CCN5CC3)cc2N1 [2/89] | < 100 | 
47 | Nc1c(N2CCc3ccc(CNC(=O)c4nc5sc6c(c5c(=O)[nH]4)CCCSC6)cc3C2)c(=O)c1=O [2/219] | < 100 | 
48 | NS(=O)(=O)c1ccc(CCNC(=O)c2nc3sc4c(c3c(=O)[nH]2)CCC4)cc1 [2/530] | 100 to 20000 | 
49 | O=C(NCc1ccc(C(F)(F)F)nc1)c1nc2sc3c(c2c(=O)[nH]1)CCC3 [2/368] | 100 to 20000 | 
50 | CN1CCc2c(sc3nc(C(=O)NCc4ccc5c(c4)NC(=O)CO5)[nH]c(=O)c23)C1 [2/29] | < 100 | 
51 | COC(=O)C1(CNC(=O)c2nc3sc4c(c3c(=O)[nH]2)CCC4)CCCCC1 [2/526] | < 100 | 
52 | O=C(NCC1CC1)c1nc2sc3c(c2c(=O)[nH]1)CCC3 [2/291] | 100 to 20000 | 
53 | C[C@@H](NC(=O)c1nc2sc3c(c2c(=O)[nH]1)CCC3)c1ccc(F)cc1 [2/319] | 100 to 20000 | 
54 | Nc1c(N2CCc3ccc(CNC(=O)c4nc5sc6ccccc6c5c(=O)[nH]4)cc3C2)c(=O)c1=O [2/67] | < 100 | 
55 | O=C(CCc1ccc2sccc2c1)c1nc2sc3c(c2c(=O)[nH]1)CCC3 [2/352] | 100 to 20000 | 
56 | CC(C)NC(=O)c1nc2sc3c(c2c(=O)[nH]1)CCC3 [2/294] | 100 to 20000 | 
57 | CS(=O)(=O)c1ccc(CNC(=O)c2nc3sc4c(c3c(=O)[nH]2)CCC4)cc1 [2/302] | 100 to 20000 | 
58 | CCNC(=O)CC1CCCc2sc3nc(C(=O)NCc4ccc5c(c4)NC(=O)CO5)[nH]c(=O)c3c21 (stereo not shown) [2/269] |  | < 250
59 | O=C(NCc1ccc(CN2CCOCC2)cc1)c1nc2sc3c(c2c(=O)[nH]1)CCC3 [2/355] | 100 to 20000 | 
60 | O=C1COc2ccc(CNC(=O)c3nc4sc5c(c4c(=O)[nH]3)CNCC5)cc2N1 [15/5] | < 100 | 
61 | O=C1COc2cc(CNC(=O)c3nc4sc5ccccc5c4c(=O)[nH]3)ccc2N1 [2/24] | 100 to 20000 | 
62 | C#CCNC(=O)C1CCc2sc3nc(C(=O)NCc4ccc5c(c4)NC(=O)CO5)[nH]c(=O)c3c21 (stereo not shown) [2/223] |  | < 250
63 | O=C1COc2ccc(CNC(=O)c3nc4sc5c(c4c(=O)[nH]3)CCCNC5)cc2N1 [15/4] | < 100 | 
